Assay results from patent US20250388867A1, “COMPOSITION AND METHOD FOR CULTURING ORGANOIDS” (ORGANOIDSCIENCES, LTD., priority 2017, published 2025).

Columns and labels:
[1] = system: small intestinal organoids; assay: Screening of compound library using organoid proliferation measurement; type: cell-based, mouse; conditions: 50 μM in EN culture solution, 4 days
Description: Small intestinal crypts were isolated from a mouse to be used in experiments for preparing and culturing small intestinal organoids. Specifically, the small intestine was isolated after killing a 5-7 weeks old C57BL/6 mouse weighing 20-25 g by cervical vertebrae dislocation. The small intestine was cut longitudinally from a proximal end to a distal end, and also laterally cut into pieces of about 5 mm length. The piece of small intestine obtained was washed with ice-cooled Dulbecco's phosphate-buffered saline (DPBS) until the supernatant liquid was sufficiently clear. Then, the crypts were isolated by treating with a Gentle Cell Dissociation Reagent (StemCell Technologies, Cambridge, MA), and filtering with a cell strainer.
Compounds which can replace R-spondin in organoid cultures were screened for 8,364 types of compounds included in a representative library of the Korea Chemical Bank.
The small intestinal crypts derived from the small intestine of a 7-week-old C57BL/6 mouse isolated in Example 1 were mixed in Matrigel, and placed in each well of a 96-well plate. […]
The number of living organoids, the number of budding organoids, and the circumference of each organoid were measured using the optical microscope photos. […] The compounds were ranked based on the measured values, and then 295 candidate compounds were selected to be used in a second screening. […]

[2] = system: small intestinal organoids; assay: Budding characteristics analysis (counts of budding and non-budding organoids); type: cell-based, mouse; conditions: 4 days
Description: The morphological characteristic of the small intestinal organoids is that they grow while budding. In order to check that the budding rate of the small intestinal organoids grown in the RS-246204-added culture solution (hereinafter, RS-246204 culture solution) is similar to that grown in ENR culture solution, the total number of organoids, the number of budding organoids, and the number of non-budding organoids were counted in the wells culturing for 4 days. The rate of budding organoids and non-budding organoids grown in the culture solution containing 50 μM of RS-246204 is about 1:1, which is similar to the rate of organoids grown in the ENR culture solution (see FIG. 2C).

[3] = system: small intestinal organoids; assay: Organoid circumference by date (growth efficiency); type: cell-based, mouse; conditions: RS-246204 culture solution vs ENR culture solution, photographed every day
Experimental: In order to check whether the growth efficiency of the small intestinal organoids grown in the RS-246204 culture solution has a difference, the small intestinal organoids cultured in each culture solution were photographed by an optical microscope every day. The circumference of the individual organoid according to the condition of culture medium and date was measured, and converted into percentage.

[4] = system: small intestinal organoids; assay: Subculture of small intestinal organoids; type: cell-based, mouse; conditions: RS-246204 culture solution
[5] = system: small intestinal organoids; assay: RT-PCR and qRT-PCR analysis of lineage markers; type: cell-based, mouse
Experimental: In order to confirm whether lineage markers specific to the small intestinal organoids are expressed when cultured with RS-246204, RNA analysis was performed. The small intestinal organoids cultured in ENR and RS-246204 culture solutions, respectively, for 4 days were collected. RNA was extracted and cDNA was synthesized, and then RT-PCR was performed. As a marker for intestinal stem cells, goblet cells, paneth cells, enteroendocrine cells and enterocyte, RT-PCR was performed using RNA primers for Lgr5, muc-1 and muc-2, defesing-5, chromogranin A (ChgA), and villin, respectively.
For quantitative analysis, qRT-PCR analysis was performed. AccuPower 2X Greenstar qPCR MasterMix (Bioneer) and Thermal Cycler Dice® Real Time System III (Takara, Japan) were used, and the reaction was performed for 10 seconds at 95° C. (denaturation), 15 seconds at 57° C. (annealing), and 20 seconds at 72° C. (extension). The RNA primers excluded Muc1 among those used in the RT-PCR test, changed the enterocyte marker from villin to Intestinal Alkaline Phosphatase (IAP), and used the same sequence for the rest.

[6] = system: small intestinal organoids; assay: Immunofluorescence analysis; type: cell-based, mouse; conditions: organoids cultured in ENR and RS-246204 culture solutions
[7] = system: small intestinal organoids; assay: CFTR agonist Forskolin analysis (function maintenance); type: cell-based, mouse; conditions: 4 days culture, then forskolin 5 μM, 1 hour
Experimental: In order to check whether functions of small intestinal epithelial cells are maintained in the small intestinal organoids cultured using the RS-246204 culture solution, CFTR agonist Forskolin analysis was performed. The forskolin is a compound which stimulates ion channels to open, thereby promoting the release of moisture. In case of small intestinal organoids, moisture gathers into the lumen by the forskolin stimulation and changes into a large spherical shape, thereby confirming the maintenance of the function of epithelial cells. After culturing for 4 days in RS-246204 culture solution and ENR culture solution, respectively, it was replaced with a culture solution to which forskolin was added at a concentration of 5 μM. Photographs were taken by an optical microscope at an interval of 10 minutes for 1 hour immediately after the replacement. Based on the optical micrographs, the free curve tool of Dixi eXcope (Korea) program was used to measure the circumference of each organoid per hour and analyze the change in circumference.

[8] = system: human large intestinal organoids; assay: Formation of large intestinal organoids (Example 6); type: cell-based; conditions: for organoid formation: 5 days
Description: (§1) Large intestinal tissue was isolated from a human patient during surgery and used in experiments for forming organoids. The tissue was cut longitudinally from a proximal end to a distal end, and also laterally cut into pieces of about 5 mm length. The tissue pieces, which were isolated crypts, were washed with ice-cooled Dulbecco's phosphate-buffered saline (DPBS) until the supernatant liquid was sufficiently clear. Then, the crypts were isolated by treating with a Gentle Cell Dissociation Reagent (StemCell Technologies, Cambridge, MA), and filtering with a cell strainer. The crypts were mixed in collagen gel, and placed in each well of a well plate with the composition comprising the compound of the chemical formula 1 (namely, RS-246204). After keeping in 37° C. humidification incubator (5% CO2) for 5 days, the formed organoids were observed, and optical microscope photos were taken for analysis.
(§2) The control and experimental groups were classified as follows depending on the components of the medium composition used.
• ENR group: Basal media supplemented with EGF (E), Noggin (N) and R-spondin (R) was used to form human large intestinal organoids. • EN+RS-246204 group: Basal media supplemented with EGF (E), Noggin (N) and RS-246204 (25 or 50 μM) was used to form human large intestinal organoids.
• RS-246204 group: Basal media supplemented with RS-246204 (25 or 50 μM) was used to form human large intestinal organoids.
Noggin, thiazovivin, CHIR99021, and a pharmaceutically acceptable salt of CHIR99021 was not used in both the control and experimental groups.

[9] = system: human large intestinal organoids; assay: Formation of large intestinal organoids, RS-246204 concentration series (Example 7); type: cell-based
Description: as §1, with “keeping in a 37° C.” for “keeping in 37° C.”, “were observed, optical microscope” for “were observed, and optical microscope”, “taken for analysis, and organoid counts were analyzed using Leopard iX software.” for “taken for analysis.”
as §2
• RS 0 μM group: Basal media (Advanced DMEM/F12 media) not supplemented with RS-246204 (also referred to as “RS”) was used to form human large intestinal organoids. • RS 2.5 μM group: Basal media (Advanced DMEM/F12 media) supplemented with RS-246204 2.5 μM was used to form human large intestinal organoids.
• RS 5 μM group: Basal media (Advanced DMEM/F12 media) supplemented with RS-246204 5[…] μM was used to form human large intestinal organoids. • RS 50 μM group: Basal media (Advanced DMEM/F12 media) supplemented with RS-246204 50 μM was used to form human large intestinal organoids. • RS 100 μM group: Basal media (Advanced DMEM/F12 media) supplemented with RS-246204 100 μM was used to form human large intestinal organoids.

[10] = system: large intestinal organoids; assay: Formation of organoids (Example 8), large intestinal; type: cell-based, human
Description: (§3) Large intestinal tissue, adenoid tissue, and pancreatic cancer tissue were isolated from a patient during surgery and used in experiments for preparing and culturing organoids. Salivary tissue was isolated from a mouse and used in experiments for preparing and culturing organoids.
(§4) Each of the tissues was cut longitudinally from a proximal end to a distal end, and also laterally cut into pieces of about 5 mm length. The piece of the tissues obtained was washed with ice-cooled Dulbecco's phosphate-buffered saline (DPBS) until the supernatant liquid was sufficiently clear. Then, the tissues were isolated by treating with a Gentle Cell Dissociation Reagent (StemCell Technologies, Cambridge, MA), and filtering with a cell strainer. The isolated tissues were mixed in collagen gel, and placed in each well of a well plate. After keeping in 37° C. humidification incubator (5% CO2), the cultured organoids were observed, and optical microscope photos were taken for analysis.

salivary organoids = assay: Formation of organoids (Example 8), salivary; type: cell-based, mouse
Description: as §3, §4

adenoid organoids = assay: Formation of organoids (Example 8), adenoid; type: cell-based, human; conditions: 1 μM
Description: as §3, §4

[11] = system: pancreatic cancer organoids; assay: Formation of organoids (Example 8), pancreatic cancer; type: cell-based, human
Description: as §3, §4

SMILES: Cn1c(Sc2ccc3ccccc3n2)nc2c1c(=O)[nH]c(=O)n2C [RS-246204]
- growth of small intestinal organoids ([1]; among the final seven candidate compounds): highest growth of small intestinal organoids among the candidate materials
- growth and maintenance of organoids compared with R-spondin ([1]; numerical data and visual confirmation): could grow and maintain organoids most similar to R-spondin
- killing of organoids ([2]; concentration higher than 50 μM): most organoids were killed
- rate of non-budding organoids ([2]; concentration lower than 50 μM): increased
- growth efficiency and increase rate of the circumference according to date [3]: similarly observed
- growth and maintenance after the subculture [4]: growth and maintenance were also possible even after the subculture
- possibility to subculture ([4]; same manner as ENR culture solution): possible to subculture
- presence of intestinal stem cells, goblet cells, paneth cells, enteroendocrine cells and enterocyte (RT-PCR markers) ([5]; 4 days culture, Lgr5, muc-1, muc-2, defesing-5, ChgA, villin): all these cells were present
- relative amount of markers expressed (qRT-PCR) ([5]; ENR vs RS-246204 culture solutions): little difference between the ENR and RS-246204 culture solutions
- expression of Muc-2, lysozyme and Ki67 (immunofluorescence staining) [6]: confirm the expression of Muc-2, lysozyme, and Ki67
- function of epithelial cells after forskolin stimulation [7]: performed well as epithelial cells
- organoid formation ([8]; EN+RS-246204 group: basal media with EGF, Noggin and RS-246204 (25 or 50 μM)): human intestinal organoids were formed
- quantity of organoid calculated from the confluency ([8]; RS-246204 group (25 or 50 μM) compared with ENR or EN+RS-246204 groups): no significant difference
- organoid formation ([8]; RS-246204 group: basal media supplemented with RS-246204 only (25 or 50 μM)): human intestinal organoids were formed
- quantity of organoid calculated from the confluency ([9]; RS 2.5 μM compared with RS 0 μM group): no significant difference
- organoid formation ([9]; RS 2.5 μM in Advanced DMEM/F12, 5 days): human intestinal organoids were formed
- organoid formation ([9]; RS-246204 5, 50 or 100 μM in Advanced DMEM/F12, 5 days): human intestinal organoids were formed
- budding (crypt) formation [10]: grow while forming budding (crypt)
- growth after subculturing [10]: can grow even after subculturing
- formation and proliferation effects ([10]; 20 μM RS-246204): excellent formation and proliferation effects
- growth after subculturing (salivary organoids): can grow even after subculturing
- dose dependence of formation and proliferation (salivary organoids; 1.25 μM, 2.5 μM or 5 μM): form and proliferate in a dose-dependent manner
- formation and proliferation effects (salivary organoids; 1.25 μM, 2.5 μM or 5 μM RS-246204): excellent formation and proliferation effects
- dose dependence of formation and proliferation (adenoid organoids; 2 μM or 5 μM): form and proliferate in a dose-dependent manner
- formation and proliferation effects (adenoid organoids; 2 μM or 5 μM RS-246204): excellent formation and proliferation effects
- growth after subculturing [11]: can grow even after subculturing
- formation and proliferation effects ([11]; 30 μM RS-246204): excellent formation and proliferation effects
